# Results as given in patent publication US9351959B2, “Alpha adreneric receptor agonists for treatment of degenerative disc disease” (WARSAW ORTHOPEDIC INC., priority 2008, dated 2016).
# Test system: Rat Chronic Constriction Injury Model
# Conditions: 0.02 mg/kg/day subcutaneously; compared to unloaded polymer depots; FIG. 4
# From the text: The inventors evaluated the efficacy of a five Month Clonidine/Polymer Drug Depot in the Rat Chronic Constriction Injury Model. The animal model was the Bennett Model (Wistar rat). The purpose: To determine whether a five month polymer clonidine-eluting depot can improve pain associated behavioral responses in a rat model of neuropathic pain.
# Experimental Design: Four loose chromic gut ligatures, 1 mm apart, were tied around the common sciatic nerve at mid-thigh. Each animal received treatment of test or control article—according to the dosing described in Table 5.
# The inventors have conducted the present study for a period of 64 days and have employed the following two tests: (1) the Hargreaves test; and (2) the von Frey test. The Hargreaves Tests of Thermal Hyperalgesia were conducted on days 7, 14, 21, 28, 35, 42, 49, 56 and 63. The von Frey monofilament test of mechanical allodynia (performed the day following Thermal testing) were conducted on days-8, 15, 22, 29, 36, 43, 50, 57 and 64.
compound,measurement,value
"Clc1cccc(Cl)c1N=C1NCCN1 [clonidine, 2,6-dichloro-N-2-imidazolidinyldenebenzenamine]",pain behavioral response (measured as a percentage of baseline) for mechanical allodynia,reduced the behavioral response
